For twelve compounds, ED50 results are on record in patent US5945454A, “2-(4-substituted)-benzylamino-2-methyl-propanamide derivatives” (Pharmacia & Upjohn, S.P.A., priority 1995, dated 1999).

Structures are written as SMILES.

The assay relates to maximal electroshock seizures (MES). Kind of assay: antagonism of maximal electroshock seizures (MES) after oral administration. It counts as in vivo. As to conditions: limits in parentheses, read-out: MES-ED50 (effective dose in 50% of treated animals). As to the method:
The activity on the CNS of the compounds of the invention was evaluated on the basis of pharmacological methods, such as, for example, the antagonism of convulsions and lethality induced by intravenous injection of bicuculline in mice (Antiepileptic Drugs, D. M. Woodbury et al. eds., 2nd edition, Raven Press, New York, 1982), or the antagonism of maximal electroshock seizures (MES) (Woodbury, L. A. and Davenport, V. D., Arch. Int. Pharmacodyn. Ther. 92; 97-104, 1952).
The following table summarizes the activity data obtained by testing in the MES test a representative group of compounds of the invention in comparison with the respective 2-desmethyl related compounds known from WO 90/14334.
ED50 means effective dose in 50% of treated animals after per os (po) administration.
In general terms: Protection in the maximal electroshock model is a classic sign of anticonvulsant action.
One may read the ED50 as the dose that gives a 50% effect, or the effect in half of the subjects. As to `CC(C)(NCc1ccc(OCc2cccc(F)c2)cc1)C(N)=O` [FCE 29088A, 2-[4-(3-fluorobenzyloxy)benzylamino]-2-methyl-propanamide, methanesulfonate], the median effective dose (ED50) was found to be 4.4 mg/kg.

Consider `C[C@H](NCc1ccc(OCc2ccccc2F)cc1)C(N)=O` [FCE 26742A, (S)-2-(4-(2-fluorobenzyloxy)benzylamino) propanamide, methanesulfonate], for which the median effective dose (ED50) amounted to 7.13 mg/kg. Consider `C[C@H](NCc1ccc(SCc2ccccc2)cc1)C(N)=O` [FCE 26727A, (S)-2-(4-benzylsulfanyl)benzylamino) propanamide, methanesulfonate], for which the 50% effective dose (ED50) worked out at 12.7 mg/kg. The result for `CC(C)(NCc1ccc(OCc2ccc(F)cc2)cc1)C(N)=O.CS(=O)(=O)O` [FCE 29645A, 2-[4-(4-fluorobenzyloxy)benzylamino]-2-methyl-propanamide, methanesulfonate] reads 6.58 mg/kg; that for `CNC(=O)[C@H](C)NCc1ccc(OCc2cccc(F)c2)cc1.CS(=O)(=O)O` [FCE 28657A, (S)-2-(4-(3-fluorobenzyloxy)benzylamino)-N-methylpropanamide, methanesulfonate], 9.35 mg/kg.

On to `CC(C)(NCc1ccc(SCc2ccccc2)cc1)C(N)=O` [FCE 29482A, 2-[(4-benzylsulfanyl)benzylamino]-2-methyl-propanamide, methanesulfonate], for which the ED50 was found to be 3.12 mg/kg. On to `CC(C)(NCc1ccc(OCc2cccc(Cl)c2)cc1)C(N)=O` [FCE 29644A, 2-[4-(3-chlorobenzyloxy)benzylamino]-2-methyl-propanamide, methanesulfonate], for which the median effective dose (ED50) came to 3.88 mg/kg.

For `CNC(=O)C(C)(C)NCc1ccc(OCc2cccc(F)c2)cc1.CS(=O)(=O)O` [FCE 29647A, 2-[4-(3-fluorobenzyloxy)benzylamino]-2-methyl-N-methyl-propanamide, methanesulfonate], the ED50 worked out at 4.34 mg/kg. The result for `C[C@H](NCc1ccc(OCc2cccc(F)c2)cc1)C(N)=O` [FCE 26743A, (S)-2-(4-(3-fluorobenzyloxy)benzylamino) propanamide, methanesulfonate] reads 8.2 mg/kg.

Regarding `C[C@H](NCc1ccc(OCc2cccc(Cl)c2)cc1)C(N)=O` [FCE 26193A, (S)-2-(4-(3-chlorobenzyloxy)benzylamino) propanamide, methanesulfonate], the ED50 was 9.41 mg/kg. With `CC(C)(NCc1ccc(OCc2ccccc2F)cc1)C(N)=O.CS(=O)(=O)O` [FCE 29484A, 2-[4-(2-fluorobenzyloxy)benzylamino]-2-methyl-propanamide, methanesulfonate], the ED50 turned out to be 3.1 mg/kg.

As for `C[C@H](NCc1ccc(OCc2ccc(F)cc2)cc1)C(N)=O` [FCE 26998A, (S)-2-(4-(4-fluorobenzyloxy)benzylamino) propanamide, methanesulfonate], the ED50 stood at 16.3 mg/kg.
